Measured values: patent publication US9012489B2, “Phenyl-3-aza-bicyclo[3.1.0]hex-3-yl-methanones and the use thereof as medicament” (Boehringer Ingelheim International GmbH, priority 2011, dated 2015)
pIC50: −log10 of the molar value.

molecular target: T1, GlyT1 transporter (Homo sapiens, UniProt P48067); assay: GlyT1 assay: 3H-glycine uptake into SK-N-MC cells (Cytostar-T format); assay type: cell-based; details: glycine uptake in human SK-N-MC cells endogenously expressing GlyT1; 500 nM glycine, 1% DMSO, signal recorded over 60 min
T1 construct: endogenously expressing the GlyT1 transporter; host or cells: SK-N-MC human neuroblastoma cells
T1 sequence (P48067 1-706): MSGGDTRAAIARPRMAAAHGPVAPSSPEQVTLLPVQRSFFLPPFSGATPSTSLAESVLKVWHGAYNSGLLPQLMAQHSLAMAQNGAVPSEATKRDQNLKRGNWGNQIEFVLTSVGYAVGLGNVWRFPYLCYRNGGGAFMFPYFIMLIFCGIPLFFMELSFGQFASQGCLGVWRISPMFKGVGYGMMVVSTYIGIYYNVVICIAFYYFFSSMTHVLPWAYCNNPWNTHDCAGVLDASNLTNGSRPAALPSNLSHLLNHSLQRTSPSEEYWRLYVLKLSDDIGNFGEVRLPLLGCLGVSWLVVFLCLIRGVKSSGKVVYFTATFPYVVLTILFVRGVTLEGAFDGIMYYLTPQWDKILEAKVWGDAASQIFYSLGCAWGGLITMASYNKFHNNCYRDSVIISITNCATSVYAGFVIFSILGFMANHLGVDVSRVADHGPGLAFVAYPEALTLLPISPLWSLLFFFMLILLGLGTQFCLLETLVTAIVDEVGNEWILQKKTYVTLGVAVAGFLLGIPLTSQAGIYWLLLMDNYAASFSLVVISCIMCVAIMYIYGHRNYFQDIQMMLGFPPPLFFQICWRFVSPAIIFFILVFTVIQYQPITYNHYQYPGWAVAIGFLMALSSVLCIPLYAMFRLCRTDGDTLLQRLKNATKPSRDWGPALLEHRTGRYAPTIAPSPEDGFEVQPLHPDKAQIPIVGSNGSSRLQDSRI
Procedure, shortened: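 Uptake slopes, measured over 60 min from the linear kinetic range, give IC50 from 8 compound concentrations, with 10 μM RG-1678 setting background. Substrate is 500 nM glycine (250 nM ³H, 250 nM unlabelled) in HBSS/5 mM alanine, 1% DMSO, after roughly 5-10 min compound preincubation. Cells: confluent SK-N-MC endogenously expressing human GlyT1.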

| Structure (SMILES) | pIC50 |
| --- | --- |
| C[C@H](Oc1ccc(S(C)(=O)=O)cc1C(=O)N1CC2(C)CC2(c2noc(C(F)(F)F)n2)C1)C(F)(F)F (mixture of isomers) [Example 157, [5-Methanesulfonyl-2-(2,2,2-trifluoro-1-methyl-ethoxy)-phenyl]-[1-methyl-5-(5-trifluoromethyl-[1,2,4]oxadiazol-3-yl)-3-aza-bicyclo[3.1.0]hex-3-yl]-methanone] | 6.83 |
| CC(C)Oc1ccc(S(C)(=O)=O)cc1C(=O)N1CC2CC2(c2noc(C(F)(F)F)n2)C1 (single isomer, unassigned) [Example 97, (2-Isopropoxy-5-methanesulfonyl-phenyl)-[1-(5-trifluoromethyl-[1,2,4]oxadiazol-3-yl)-3-aza-bicyclo[3.1.0]hex-3-yl]-methanone] | 8.10 |
| C[C@H](Oc1ccc(S(C)(=O)=O)cc1C(=O)N1CC2CC2(c2ncc(C(F)(F)F)o2)C1)C(F)(F)F (mixture of isomers) [Example 131, [5-Methanesulfonyl-2-(2,2,2-trifluoro-1-methyl-ethoxy)-phenyl]-[1-(5-trifluoromethyl-oxazol-2-yl)-3-aza-bicyclo[3.1.0]hex-3-yl]-methanone] | 7.72 |
| C[C@H](Oc1ccc(S(C)(=O)=O)cc1C(=O)N1CC2CC2(c2noc(C3(C(F)(F)F)CC3)n2)C1)C(F)(F)F (single isomer, unassigned) [Example 66, [5-Methanesulfonyl-2-(2,2,2-trifluoro-1-methyl-ethoxy)-phenyl]-{1-[5-(1-trifluoromethyl-cyclopropyl)-[1,2,4]oxadiazol-3-yl]-3-aza-bicyclo[3.1.0]hex-3-yl}-methanone] | 8.40 |
| Cc1cnc(C23CC2CN(C(=O)c2cc(S(C)(=O)=O)ccc2O[C@@H](C)C(F)(F)F)C3)o1 (single isomer, unassigned) [Example 22, [5-Methanesulfonyl-2-(2,2,2-trifluoro-1-methyl-ethoxy)-phenyl]-[1-(5-methyl-oxazol-2-yl)-3-aza-bicyclo[3.1.0]hex-3-yl]-methanone] | 8.30 |
| C[C@@H](Oc1ccc(S(C)(=O)=O)cc1C(=O)N1CC2CC2(c2noc(C3(C(F)(F)F)CC3)n2)C1)C(F)(F)F (single isomer, unassigned) [Example 70, [5-Methanesulfonyl-2-(2,2,2-trifluoro-1-methyl-ethoxy)-phenyl]-{1-[5-(1-trifluoromethyl-cyclopropyl)-[1,2,4]oxadiazol-3-yl]-3-aza-bicyclo[3.1.0]hex-3-yl}-methanone] | 6.81 |
| C[C@H](Oc1ccc(S(C)(=O)=O)cc1C(=O)N1CC2CC2(c2ncc(C(F)(F)F)o2)C1)C(F)(F)F (single isomer, unassigned) [Example 133, [5-Methanesulfonyl-2-(2,2,2-trifluoro-1-methyl-ethoxy)-phenyl]-[1-(5-trifluoromethyl-oxazol-2-yl)-3-aza-bicyclo[3.1.0]hex-3-yl]-methanone] | 6.39 |
| C[C@H](Oc1ccc(S(C)(=O)=O)cc1C(=O)N1CC2CC2(c2cn3ccccc3n2)C1)C(F)(F)F (mixture of isomers) [Example 24, (1-Imidazo[1,2-a]pyridin-2-yl-3-aza-bicyclo[3.1.0]hex-3-yl)-[5-methanesulfonyl-2-(2,2,2-trifluoro-1-methyl-1-ethoxy)-phenyl]-methanone] | 6.04 |
| C[C@H](Oc1ccc(S(C)(=O)=O)cc1C(=O)N1CC2CC2(c2cccc(C(F)(F)F)n2)C1)C(F)(F)F (single isomer, unassigned) [Example 56, [5-Methanesulfonyl-2-(2,2,2-trifluoro-1-methyl-ethoxy)-phenyl]-[1-(6-trifluoromethyl-pyridin-2-yl)-3-aza-bicyclo[3.1.0]hex-3-yl]-methanone] | 6.63 |
| C[C@H](Oc1ccc(S(C)(=O)=O)cc1C(=O)N1CC2CC2(c2noc(C3CC(F)(F)C3)n2)C1)C(F)(F)F (single isomer, unassigned) [Example 59] | 8.10 |
| Cc1c(C23CC2CN(C(=O)c2cc(S(C)(=O)=O)ccc2O[C@@H](C)C(F)(F)F)C3)noc1C(F)(F)F (mixture of isomers) [Example 163] | 7.80 |

Continued by rising pIC50, values first:

| pIC50 | Structure (SMILES) |
| --- | --- |
| 5.52 | CS(=O)(=O)c1ccc(O[C@@H]2CCOC2)c(C(=O)N2CC3CC3(c3noc(C(F)(F)F)n3)C2)c1 (single isomer, unassigned) [Example 140, [5-Methanesulfonyl-2-(tetrahydro-furan-3-yloxy)-phenyl]-[1-(5-trifluoromethyl-[1,2,4]oxadiazol-3-yl)-3-aza-bicyclo[3.1.0]hex-3-yl]-methanone] |
| 5.95 | CC(C)Oc1ccc(S(C)(=O)=O)cc1C(=O)N1CC2CC2(c2nc(C(F)(F)F)co2)C1 (racemic) [Example 110, (2-Isopropoxy-5-methanesulfonyl-phenyl)-[1-(4-trifluoromethyl-oxazol-2-yl)-3-aza-bicyclo[3.1.0]hex-3-yl]-methanone] |
| 6.11 | C[C@@H](Oc1ccc(S(C)(=O)=O)cc1C(=O)N1CC2CC2(c2coc(C3CC3)n2)C1)C(F)(F)F (single isomer, unassigned) [Example 82] |
| 6.45 | C[C@H](Oc1ccc(S(C)(=O)=O)cc1C(=O)N1CC2CC2(C2=NCC(C(F)(F)F)O2)C1)C(F)(F)F (mixture of isomers) [Example 57, [5-Methanesulfonyl-2-(2,2,2-trifluoro-1-methyl-ethoxy)-phenyl]-[1-(5-trifluoromethyl-4,5-dihydro-oxazol-2-yl)-3-aza-bicyclo[3.1.0]hexyl-3-yl]-methanone] |
| 6.74 | Cc1cnc(C23CC2CN(C(=O)c2cc(S(C)(=O)=O)ccc2O[C@@H](C)C(F)(F)F)C3)o1 (single isomer, unassigned) [Example 23, [5-Methanesulfonyl-2-(2,2,2-trifluoro-1-methyl-ethoxy)-phenyl]-[1-(5-methyl-oxazol-2-yl)-3-aza-bicyclo[3.1.0]hex-3-yl]-methanone] |
| 7.47 | C[C@@H](Oc1ccc(S(C)(=O)=O)cc1C(=O)N1CC2CC2(c2nc(C(F)(F)F)no2)C1)C(F)(F)F (mixture of isomers) [Example 37, [5-Methanesulfonyl-2-(2,2,2-trifluoro-1-methyl-ethoxy)-phenyl]-[1-(3-trifluoromethyl-[1,2,4]oxadiazol-5-yl)-3-aza-bicyclo[3.1.0]hex-3-yl]-methanone] |
| 7.54 | C[C@H](Oc1ccc(S(C)(=O)=O)cc1C(=O)N1CC2CC2(c2cc(C(F)(F)F)on2)C1)C(F)(F)F (mixture of isomers) [Example 46, [5-Methanesulfonyl-2-(2,2,2-trifluoro-1-methyl-ethoxy)-phenyl]-[1-(5-trifluoromethyl-isoxazol-3-yl)-3-aza-bicyclo[3.1.0]hex-3-yl]-methanone] |
| 7.68 | Cc1cnc(C23CC2CN(C(=O)c2cc(S(C)(=O)=O)ccc2O[C@@H](C)C(F)(F)F)C3)o1 (mixture of isomers) [Example 21, [5-Methanesulfonyl-2-(2,2,2-trifluoro-1-methyl-ethoxy)-phenyl]-[1-(5-methyl-oxazol-2-yl)-3-aza-bicyclo[3.1.0]hex-3-yl]-methanone] |
| 7.70 | C[C@@H](Oc1ccc(S(C)(=O)=O)cc1C(=O)N1CC2CC2(c2nc(C(F)(F)F)no2)C1)C(F)(F)F (single isomer, unassigned) [Example 86, [5-Methanesulfonyl-2-(2,2,2-trifluoro-1-methyl-ethoxy)-phenyl]-[1-(3-trifluoromethyl-[1,2,4]oxadiazol-5-yl)-3-aza-bicyclo[3.1.0]hex-3-yl]-methanone] |
| 8.00 | C[C@H](Oc1ccc(S(C)(=O)=O)cc1C(=O)N1CC2CC2(c2noc(C3CC3(F)F)n2)C1)C(F)(F)F (mixture of isomers) [Example 63, {1-[5-(2,2-Difluoro-cyclopropyl)-[1,2,4]oxadiazol-3-yl]-3-aza-bicyclo[3.1.0]hex-3-yl}-[5-methanesulfonyl-2-(2,2,2-trifluoro-1-methyl-ethoxy)-phenyl]-methanone] |
| 8.15 | C[C@@H](Oc1ccc(S(C)(=O)=O)cc1C(=O)N1CC2CC2(c2nc(C3CC3)no2)C1)C(F)(F)F (mixture of isomers) [Example 145, [1-(3-Cyclopropyl-[1,2,4]oxadiazol-5-yl)-3-aza-bicyclo[3.1.0]hex-3-yl]-[5-methanesulfonyl-2-(2,2,2-trifluoro-1-methyl-ethoxy)-phenyl]-methanone] |
| 8.30 | C[C@@H](Oc1ccc(S(C)(=O)=O)cc1C(=O)N1CC2CC2(c2nccc(C(F)(F)F)n2)C1)C(F)(F)F (single isomer, unassigned) [Example 19, [5-Methanesulfonyl-2-(2,2,2-trifluoro-1-methyl-ethoxy)-phenyl]-[1-(4-trifluoromethyl-pyrimidin-2-yl)-3-aza-bicyclo[3.1.0]hex-3-yl]-methanone] |
| 8.52 | CC(C)Oc1ccc(S(C)(=O)=O)cc1C(=O)N1CC2CC2(c2noc(C3(C(F)(F)F)CC3)n2)C1 (single isomer, unassigned) [Example 142, (2-Isopropoxy-5-methanesulfonyl-phenyl)-{1-[5-(1-trifluoromethyl-cyclopropyl)-[1,2,4]oxadiazol-3-yl]-3-aza-bicyclo[3.1.0]hex-3-yl}-methanone] |
